Laboratory results: ChEMBL document CHEMBL4402557, “Nidufexor (LMB763), a Novel FXR Modulator for the Treatment of Nonalcoholic Steatohepatitis” (J Med Chem, 2020)
The source made the active and inactive calls. No cut-off for these calls is given here.

Experiments:
[1] = molecular target: T1, Androgen receptor (Homo sapiens, UniProt P10275); test: Agonist activity at androgen receptor (unknown origin) incubated for 2 hrs by TR-FRET assay
T1 sequence (P10275 whole entry): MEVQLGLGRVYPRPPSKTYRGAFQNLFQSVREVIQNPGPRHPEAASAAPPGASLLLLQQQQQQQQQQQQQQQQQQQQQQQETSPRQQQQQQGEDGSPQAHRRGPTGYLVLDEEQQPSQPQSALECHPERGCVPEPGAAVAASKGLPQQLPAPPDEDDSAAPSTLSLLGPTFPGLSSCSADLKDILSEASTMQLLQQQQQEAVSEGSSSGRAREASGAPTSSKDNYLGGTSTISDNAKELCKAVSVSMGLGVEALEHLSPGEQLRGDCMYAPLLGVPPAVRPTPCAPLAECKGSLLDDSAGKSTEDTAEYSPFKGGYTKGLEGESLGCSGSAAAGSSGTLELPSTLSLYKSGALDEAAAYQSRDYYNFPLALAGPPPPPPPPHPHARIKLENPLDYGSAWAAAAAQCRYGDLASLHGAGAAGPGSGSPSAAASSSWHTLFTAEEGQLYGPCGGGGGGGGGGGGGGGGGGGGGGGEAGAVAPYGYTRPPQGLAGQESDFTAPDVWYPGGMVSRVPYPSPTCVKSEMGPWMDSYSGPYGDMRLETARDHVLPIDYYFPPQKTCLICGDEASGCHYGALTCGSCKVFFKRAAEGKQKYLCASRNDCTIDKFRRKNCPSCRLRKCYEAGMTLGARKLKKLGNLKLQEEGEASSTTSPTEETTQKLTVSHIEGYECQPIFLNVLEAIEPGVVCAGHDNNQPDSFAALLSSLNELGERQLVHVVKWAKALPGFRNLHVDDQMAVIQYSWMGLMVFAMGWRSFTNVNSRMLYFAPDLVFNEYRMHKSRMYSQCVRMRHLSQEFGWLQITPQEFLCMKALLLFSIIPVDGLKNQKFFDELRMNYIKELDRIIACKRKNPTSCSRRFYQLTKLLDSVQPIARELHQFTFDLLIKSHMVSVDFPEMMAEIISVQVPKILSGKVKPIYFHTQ

[2] = Terminal half life in orally dosed rat; assay type: ADME, organism-based; details: in vivo, po, read-out: beta t1/2 (converted)
[3] = tested on: Rattus norvegicus; test: In-vivo agonist activity at FXR in orally dosed Han Wistar rat assessed as repression of CYP8b1 mRNA level in liver administered via oral gavage once daily for 14 days measured post last dose by qRT-PCR analysis; assay type: functional, organism-based
[4] = Half life in Wistar rat at 300 mg/kg, po; assay type: ADME, organism-based; details: in vivo
[5] = Oral bioavailability in Wistar rat at 3 mg/kg; assay type: ADME, organism-based; details: in vivo
[6] = molecular target: T2, G-protein coupled bile acid receptor 1 (Homo sapiens) (UniProt Q8TDU6); test: Agonist activity at human GPBAR1 expressed in Jurkat cells assessed as increase in intracellular cAMP level incubated for 1 hr by fluorescence based assay relative to control; assay type: functional, cell-based
T2 sequence (whole entry): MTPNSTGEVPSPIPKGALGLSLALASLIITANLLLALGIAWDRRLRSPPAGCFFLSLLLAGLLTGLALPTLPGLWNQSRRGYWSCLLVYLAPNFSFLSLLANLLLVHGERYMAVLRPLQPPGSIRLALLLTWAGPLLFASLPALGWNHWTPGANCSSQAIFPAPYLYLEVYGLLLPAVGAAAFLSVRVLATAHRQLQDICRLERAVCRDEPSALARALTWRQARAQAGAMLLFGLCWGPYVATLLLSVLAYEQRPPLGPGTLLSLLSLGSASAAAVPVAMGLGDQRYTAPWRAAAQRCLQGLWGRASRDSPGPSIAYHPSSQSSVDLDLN

[7] = Ratio of AUC in liver to plasma in Wistar rat liver at 10 mg/kg, po; assay type: ADME, organism-based; details: read-out: Ratio AUC
[8] = tested on: Rattus norvegicus; test: In-vivo agonist activity at FXR in Han Wistar rat assessed as upregulation of FGF15 protein level in serum at 1.5 mg/kg administered via oral gavage once daily for 14 days measured 10 hrs post last dose relative to control; assay type: functional
[9] = Ratio of AUC in Brain to plasma in Wistar rat […] at 10 mg/kg, po; assay type: ADME, organism-based; details: read-out: Ratio AUC
[10] = Lipophilicity, logD of compound at pH 6.8; assay type: physicochemical; details: buffer
[11] = Oral bioavailability in rabbit at 10 mg/kg; assay type: ADME, organism-based, Oryctolagus cuniculus; details: in vivo
[12] = Oral bioavailability in Wistar rat at 300 mg/kg; assay type: ADME, organism-based; details: in vivo
[13] = Cmax in Wistar rat at 30 mg/kg, po; assay type: ADME, organism-based; set-up: dose 30 mg/kg, route oral; details: in vivo
[14] = tested on: Rattus norvegicus; test: In-vivo agonist activity at FXR in orally dosed Han Wistar rat assessed as upregulation of SHP mRNA level in liver administered via oral gavage once daily for 14 days measured post last dose by qRT-PCR analysis; assay type: functional, organism-based
[15] = Half life in Wistar rat at 30 mg/kg, po; assay type: ADME, organism-based; details: in vivo
[16] = tested on: Rattus norvegicus; test: In-vivo agonist activity at FXR in orally dosed Han Wistar rat assessed as repression of CYP7a1 mRNA level in liver administered via oral gavage once daily for 14 days measured post last dose by qRT-PCR analysis; assay type: functional, organism-based
[17] = Volume of distribution at steady state in dog at 0.5 mg/kg, iv; assay type: ADME, organism-based, Canis lupus familiaris; details: in vivo, read-out: Vdss
[18] = Clearance in rabbit at 5 mg/kg, iv; assay type: ADME, organism-based, Oryctolagus cuniculus; details: in vivo
[19] = molecular target: T3, Nuclear receptor subfamily 1 group I member 2 (Homo sapiens, UniProt O75469); test: Agonist activity at PXR (unknown origin) incubated for 2 hrs by TR-FRET assay
T3 sequence (O75469 whole entry): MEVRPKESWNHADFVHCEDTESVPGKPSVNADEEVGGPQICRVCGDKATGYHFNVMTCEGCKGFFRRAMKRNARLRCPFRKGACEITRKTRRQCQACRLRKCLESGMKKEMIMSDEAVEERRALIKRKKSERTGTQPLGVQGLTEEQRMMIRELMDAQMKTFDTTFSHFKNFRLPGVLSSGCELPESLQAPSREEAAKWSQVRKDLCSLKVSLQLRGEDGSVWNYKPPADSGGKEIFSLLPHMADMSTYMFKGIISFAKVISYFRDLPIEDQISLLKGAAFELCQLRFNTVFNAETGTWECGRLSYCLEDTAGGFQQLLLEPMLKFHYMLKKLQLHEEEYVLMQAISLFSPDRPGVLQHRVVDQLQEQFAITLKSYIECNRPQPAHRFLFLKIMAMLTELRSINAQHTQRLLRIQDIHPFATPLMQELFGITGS

[20] = organism: Mus musculus; test: Anti Steato-hepatitic activity in C57BL/6J mouse STAM model assessed as change in Nr0b2 gene level in liver; assay type: functional, organism-based

Cn1nc(C(=O)N(Cc2ccccc2)Cc2ccc(C(=O)O)cc2)c2c1-c1cc(Cl)ccc1OC2 [NIDUFEXOR]
EC50 [1]: > 30 µM | half-life [2]: 13 h | Activity [3]: Active | half-life [4]: 6.3 h | bioavailability [5]: 63% | Efficacy [6]: 13% | Kp [7]: 1.5 | fold change (FC) [8]: 3.5 | Kp [9]: 0.05 | logD [10]: 2.7 | bioavailability [11]: 52% | bioavailability [12]: 72% | Cmax [13]: 28.1 µM | Activity [14]: Dose-dependent effect | half-life [15]: 6.3 h | Activity [16]: Active | Vd [17]: 1.1 L/kg | clearance [18]: 5.6 mL/min/kg | EC50 [19]: > 30 µM | Activity [20]: Active
